Experimental data: US8044052B2, “Biaryl ether urea compounds” (Pfizer Inc., priority 2006, dated 2011)
Counter-ions that a name gives are not always drawn.

These compounds were tested against T1, Human FAAH (Homo sapiens, UniProt O00519) (assay: FAAH assay (glutamate dehydrogenase-coupled, oleamide substrate, absorbance at 340 nm)). Conditions: irreversible inhibition, 1-4 nM FAAH, pH 7.4, 30° C., 90 min, read-out: hFAAH kinact/Ki.
T1 construct: made in house
T1 sequence (O00519 1-579): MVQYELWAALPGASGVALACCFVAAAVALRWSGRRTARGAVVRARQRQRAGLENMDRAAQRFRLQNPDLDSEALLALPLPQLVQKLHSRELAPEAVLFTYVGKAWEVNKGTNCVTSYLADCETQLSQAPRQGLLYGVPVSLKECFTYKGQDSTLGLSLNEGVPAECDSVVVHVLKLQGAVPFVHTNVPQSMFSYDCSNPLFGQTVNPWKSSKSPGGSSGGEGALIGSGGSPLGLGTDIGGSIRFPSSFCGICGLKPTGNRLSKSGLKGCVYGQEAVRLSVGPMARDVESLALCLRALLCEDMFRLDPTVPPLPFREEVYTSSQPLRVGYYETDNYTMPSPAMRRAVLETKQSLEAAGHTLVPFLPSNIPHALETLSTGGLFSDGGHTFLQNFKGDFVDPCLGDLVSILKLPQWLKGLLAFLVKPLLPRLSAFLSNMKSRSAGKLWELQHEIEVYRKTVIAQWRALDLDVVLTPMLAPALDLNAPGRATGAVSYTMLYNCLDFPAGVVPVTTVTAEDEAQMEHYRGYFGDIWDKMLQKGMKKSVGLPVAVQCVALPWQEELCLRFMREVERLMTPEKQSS
Type: biochemical
Description: The FAAH assay was carried out in 384-well clear polystyrene plates in a total volume of 50 μl per well. All percents are by volume. To each well, was placed the reaction mixture (40 μl) containing 1-4 nM FAAH, 50 mM NaPi, pH 7.4, 3 mM α-ketoglutarate, 0.15 mM NADH, 7.5 U/ml glutamate dehydrogenase, 2 mM ADP, 1 mM EDTA, and 0.1% Triton X-100 (The concentration shown for each component is the final concentration in the assay). […] This was immediately followed by the addition of 5 μl oleamide (500 μM) dissolved in 75% EtOH/25% DMSO and the reaction mixture was mixed for 1.5 min. The final concentrations of DMSO and EtOH in the assay were each 7.5%.
Initial velocity data (V) were obtained from the slopes of the initial progressive curves. They were plotted as a function of substrate concentration and fit to the Michaelis-Menten equation (1) using Prism (GraphPad Software, Inc., San Diego, Calif.) software to obtain Km and Vmax values.
To obtain potencies of irreversible inhibitors, progressive curves consistent with first order inhibition kinetics (two-step irreversible inhibition mechanism) were fit to equation (2) by nonlinear least squares regressions to determine kobs values at each inhibitor concentration, where [P]t is the absorbance at time t, V0 is a constant related to the steady state rate of the uninhibited reaction, and kobs is the first order rate constant for enzyme inactivation. The inhibitor dissociation constant (Ki) and the first order rate
[formula] constant of enzyme inactivation at infinite inhibitor concentration (kinact) were then obtained by fitting the kobs vs. [I] curves to equation (3).
O=C(Nc1cccnc1)N1CCC(=Cc2cc(Br)cc(Oc3ccc(C(F)(F)F)cn3)c2)CC1 [Example 62, 4-(3-bromo-5-(5-(trifluoromethyl)pyridin-2-yloxy)benzylidene)-N-(pyridin-3-yl)piperidine-1-carboxamide] showed a kinact/KI of 1370 M⁻¹ s⁻¹.
Work on O=C(Nc1cccnn1)N1CCC(=Cc2cc(Br)cc(Oc3ccc(C(F)(F)F)cn3)c2)CC1 [Example 63, 4-(3-bromo-5-(5-(trifluoromethyl)pyridin-2-yloxy)benzylidene)-N-(pyridazin-3-yl)piperidine-1-carboxamide] yielded a kinact/KI of 2530 M⁻¹ s⁻¹.
O=C(Nc1cccnn1)N1CCC(=Cc2cc(Oc3ccc(C(F)(F)F)cn3)cc(C3CC3)c2)CC1 [Example 64, 4-(3-cyclopropyl-5-(5-(trifluoromethyl)pyridin-2-yloxy)benzylidene)-N-(pyridazin-3-yl)piperidine-1-carboxamide] was tested, and the kinact/KI was 417 M⁻¹ s⁻¹.
With O=C(Nc1cccnc1)N1CCC(=Cc2cc(F)cc(Oc3ccc(C(F)(F)F)cn3)c2)CC1 [Example 65, 4-(3-fluoro-5-(5-(trifluoromethyl)pyridin-2-yloxy)benzylidene)-N-(pyridin-3-yl)piperidine-1-carboxamide] the kinact/KI was 6710 M⁻¹ s⁻¹.
For O=C(Nc1cccnc1)N1CCC(=C(Br)c2cccc(Oc3ccc(C(F)(F)F)cn3)c2)CC1 [Example 66, 4-(bromo(3-(5-(trifluoromethyl)pyridin-2-yloxy)phenyl)methylene)-N-(pyridin-3-yl)piperidine-1-carboxamide], the kinact/KI was 1560 M⁻¹ s⁻¹.
In the case of CC(=C1CCN(C(=O)Nc2cccnc2)CC1)c1cccc(Oc2ccc(C(F)(F)F)cn2)c1 [Example 67, N-(pyridin-3-yl)-4-(1-(3-(5-(trifluoromethyl)pyridin-2-yloxy)phenyl)ethylidene)piperidine-1-carboxamide], the kinact/KI is reported as 5980 M⁻¹ s⁻¹.
In the case of O=C(Nc1cccnc1)N1CCC(=C(c2ccccc2)c2cccc(Oc3ccc(C(F)(F)F)cn3)c2)CC1 [Example 68, 4-(phenyl(3-(5-(trifluoromethyl)pyridin-2-yloxy)phenyl)methylene)-N-(pyridin-3-yl)piperidine-1-carboxamide], the kinact/KI is reported as 206 M⁻¹ s⁻¹.
For O=C(Nc1cccnc1)N1CCC(=C(F)c2cccc(Oc3ccc(C(F)(F)F)cn3)c2)CC1 [Example 69, 4-(fluoro(3-(5-(trifluoromethyl)pyridin-2-yloxy)phenyl)methylene)-N-(pyridin-3-yl)piperidine-1-carboxamide], the kinact/KI was 2300 M⁻¹ s⁻¹.
COc1ccc(NC(=O)N2CCC(=C(F)c3cccc(Oc4ccc(C(F)(F)F)cn4)c3)CC2)cn1 [Example 71, 4-(fluoro(3-(5-(trifluoromethyl)pyridin-2-yloxy)phenyl)methylene)-N-(6-methoxypyridin-3-yl)piperidine-1-carboxamide] gave a kinact/KI of 777 M⁻¹ s⁻¹.
For Cc1ccnc(Oc2cccc(C=C3CCN(C(=O)Nc4cccnc4)CC3)c2)c1 [Example 72, 4-{3-[(4-methylpyridin-2-yl)oxy]benzylidene}-N-pyridin-3-ylpiperidine-1-carboxamide], the kinact/KI was 681 M⁻¹ s⁻¹.
Cc1ccnc(Oc2cccc(C=C3CCN(C(=O)Nc4cccnn4)CC3)c2)c1 [Example 73, 4-{3-[(4-methylpyridin-2-yl)oxy]benzylidene}-N-pyridazin-3-ylpiperidine-1-carboxamide] was tested, and the kinact/KI was 963 M⁻¹ s⁻¹.
O=C(Nc1cnoc1)N1CCC(=Cc2cccc(Oc3ccc(C(F)(F)F)cn3)c2)CC1 [Example 75, N-isoxazol-4-yl-4-(3-{[5-(trifluoromethyl)pyridin-2-yl]oxy}benzylidene)piperidine-1-carboxamide] showed a kinact/KI of 3620 M⁻¹ s⁻¹.
Work on Cn1ccc(NC(=O)N2CCC(=Cc3cccc(Oc4ccc(C(F)(F)F)cn4)c3)CC2)n1 [Example 77, N-(1-methyl-1H-pyrazol-3-yl)-4-(3-{[5-(trifluoromethyl)pyridin-2-yl]oxy}benzylidene)piperidine-1-carboxamide] yielded a kinact/KI of 339 M⁻¹ s⁻¹.
Work on Cn1ncc(NC(=O)N2CCC(=Cc3cccc(Oc4ccc(C(F)(F)F)cn4)c3)CC2)n1 [Example 78, N-(2-methyl-2H-1,2,3-triazol-4-yl)-4-(3-{[5-(trifluoromethyl)pyridin-2-yl]oxy}benzylidene)piperidine-1-carboxamide] yielded a kinact/KI of 2100 M⁻¹ s⁻¹.
In the case of O=C(Nc1ncccc1O)N1CCC(=Cc2cccc(Oc3ccc(C(F)(F)F)cn3)c2)CC1 [Example 79, N-(3-hydroxypyridin-2-yl)-4-(3-{[5-(trifluoromethyl)pyridin-2-yl]oxy}benzylidene)piperidine-1-carboxamide trifluoroacetate], the kinact/KI is reported as 4880 M⁻¹ s⁻¹.
CCc1cc(NC(=O)N2CCC(=Cc3cccc(Oc4ccc(C(F)(F)F)cn4)c3)CC2)[nH]n1 [Example 80, N-(3-ethyl-1H-pyrazol-5-yl)-4-(3-{[5-(trifluoromethyl)pyridin-2-yl]oxy}benzylidene)piperidine-1-carboxamide trifluoroacetate] was tested, and the kinact/KI was 353 M⁻¹ s⁻¹.
CCn1ncnc1NC(=O)N1CCC(=Cc2cccc(Oc3ccc(C(F)(F)F)cn3)c2)CC1 [Example 81, N-(1-ethyl-1H-1,2,4-triazol-5-yl)-4-(3-{[5-(trifluoromethyl)pyridin-2-yl]oxy}benzylidene)piperidine-1-carboxamide trifluoroacetate] showed a kinact/KI of 1010 M⁻¹ s⁻¹.
O=C(Nc1cccc(CO)c1)N1CCC(=Cc2cccc(Oc3ccc(C(F)(F)F)cn3)c2)CC1 [Example 82, N-[3-(hydroxymethyl)phenyl]-4-(3-{[5-(trifluoromethyl)pyridin-2-yl]oxy}benzylidene)piperidine-1-carboxamide] gave a kinact/KI of 979 M⁻¹ s⁻¹.
In the case of O=C(Nc1cc(CO)ccn1)N1CCC(=Cc2cccc(Oc3ccc(C(F)(F)F)cn3)c2)CC1 [Example 83, N-[4-(hydroxymethyl)pyridin-2-yl]-4-(3-{[5-(trifluoromethyl)pyridin-2-yl]oxy}benzylidene)piperidine-1-carboxamide trifluoroacetate], the kinact/KI is reported as 356 M⁻¹ s⁻¹.
O=C(Nc1ccc(Cl)nn1)N1CCC(=Cc2cccc(Oc3ccc(C(F)(F)F)cn3)c2)CC1 [Example 84, N-(6-chloropyridazin-3-yl)-4-(3-{[5-(trifluoromethyl)pyridin-2-yl]oxy}benzylidene)piperidine-1-carboxamide] showed a kinact/KI of 5590 M⁻¹ s⁻¹.
In the case of O=C(Nc1cccnn1)N1CCC(=Cc2cccc(Oc3ccc(N4CCCC4)cn3)c2)CC1 [Example 85, 4-(3-(5-(pyrrolidin-1-yl)pyridin-2-yloxy)benzylidene)-N-(pyridazin-3-yl)piperidine-1-carboxamide], the kinact/KI is reported as 1540 M⁻¹ s⁻¹.
Work on O=C(Nc1cccnc1)N1CCC(=Cc2cccc(Oc3ccc(N4CCCC4)cn3)c2)CC1 [Example 86, 4-(3-(5-(pyrrolidin-1-yl)pyridin-2-yloxy)benzylidene)-N-(pyridin-3-yl)piperidine-1-carboxamide] yielded a kinact/KI of 856 M⁻¹ s⁻¹.
In the case of O=C(Nc1cccnn1)N1CCC(=Cc2cccc(Oc3ccc(N4CCC4)cn3)c2)CC1 [Example 87, 4-(3-(5-(azetidin-1-yl)pyridin-2-yloxy)benzylidene)-N-(pyridazin-3-yl)piperidine-1-carboxamide], the kinact/KI is reported as 1840 M⁻¹ s⁻¹.
O=C(Nc1cccnc1)N1CCC(=Cc2cccc(Oc3ccc(N4CCC4)cn3)c2)CC1 [Example 88, 4-(3-(5-(azetidin-1-yl)pyridin-2-yloxy)benzylidene)-N-(pyridin-3-yl)piperidine-1-carboxamide] was tested, and the kinact/KI was 3580 M⁻¹ s⁻¹.
Compound C#CCCCOc1ccc(Oc2cccc(C=C3CCN(C(=O)Nc4cccnc4)CC3)c2)nc1 [Example 89, 4-(3-(5-(pent-4-ynyloxy)pyridin-2-yloxy)benzylidene)-N-(pyridin-3-yl)piperidine-1-carboxamide] has a kinact/KI of 6450 M⁻¹ s⁻¹.
C#CCCCOc1ccc(Oc2cccc(C=C3CCN(C(=O)Nc4cccnn4)CC3)c2)nc1 [Example 90, 4-(3-(5-(pent-4-ynyloxy)pyridin-2-yloxy)benzylidene)-N-(Pyridazin-3-yl)piperidine-1-carboxamide] showed a kinact/KI of 7600 M⁻¹ s⁻¹.
With O=C(Nc1cccnn1)N1CCC(=Cc2cccc(Oc3ccccc3)n2)CC1 [Example 91, 4-((6-phenoxypyridin-2-yl)methylene)-N-(pyridazin-3-yl)piperidine-1-carboxamide] the kinact/KI was 636 M⁻¹ s⁻¹.
For O=C(Nc1cccnc1)N1CCC(=Cc2cccc(Oc3ccccc3)n2)CC1 [Example 92, 4-((6-phenoxypyridin-2-yl)methylene)-N-(pyridin-3-yl)piperidine-1-carboxamide], the kinact/KI was 894 M⁻¹ s⁻¹.
